In brackets after ≈: the same amount, converted by molar mass.
Assays:
Assay type in all cases: cell-based
[1] = test system: Pseudomonas UI 18; test: In vitro minimal inhibitory concentration, Pseudomonas UI 18; details: UI18
[2] = test system: Entero Cloac. IM 11; test: In vitro minimal inhibitory concentration, Entero Cloac. IM 11
[3] = test system: Strep. fec. MGH 2; test: In vitro minimal inhibitory concentration, Strep. fec. MGH 2
[4] = test system: Pseudomonas #28; test: In vitro minimal inhibitory concentration, Pseudomonas #28; details: Pseudomonas #28; in vitro; read-out: Minimal Inhibitory Concentration
[5] = test system: Serr. Mar. IMM 16; test: In vitro minimal inhibitory concentration, Serr. Mar. IMM 16
[6] = test system: E. Coli. Brig; test: In vitro minimal inhibitory concentration, E. Coli. Brig; details: Escherichia coli
[7] = test system: Prot Vulg.; test: In vitro minimal inhibitory concentration, Prot Vulg.
[8] = test system: Pseudomonas BRK 12-4-4; test: In vitro minimal inhibitory concentration, Pseudomonas BRK 12-4-4; details: BRK1244
[9] = test system: E. Coli. Vogel; test: In vitro minimal inhibitory concentration, E. Coli. Vogel; details: Escherichia coli
[10] = test system: Klebs. Pneum. MGH 2; test: In vitro minimal inhibitory concentration, Klebs. Pneum. MGH 2
[11] = test system: Staph UC76; test: In vitro minimal inhibitory concentration, Staph UC76
[12] = test system: Staph S 18713; test: In vitro minimal inhibitory concentration, Staph S 18713

Compound	MIC [1]	MIC [2]	MIC [3]	MIC [4]	MIC [5]	MIC [6]	MIC [7]	MIC [8]	MIC [9]	MIC [10]	MIC [11]	MIC [12]
CC(=O)NC(C)C(=O)Nc1ccc(-c2ccc(C(=O)N[C@@H](C(=O)NC3C(=O)N4C(C(=O)O)=C(COC(C)=O)CSC34)c3ccccc3)c(=O)[nH]2)cc1 (mixture of isomers) [Example 3, N-[6-[4-(N-Acetyl-DL-alanylamino)phenyl]-1,2-dihydro-2-oxonicotinyl]-7-[D-2-amino-2-phenylacetamido]-3-acetoxymethyl cephem-4-carboxylic acid]	6.3 µg/mL	25 µg/mL	25 µg/mL	12.5 µg/mL	25 µg/mL	12.5 µg/mL	25 µg/mL	12.5 µg/mL	3.1 µg/mL	6.3 µg/mL	0.4 µg/mL	
CC(=O)NC(C)C(=O)Nc1ccc(-c2ccc(C(=O)N[C@@H](C(=O)NC3C(=O)N4C(C(=O)O)=C(COC(N)=O)CSC34)c3ccccc3)c(=O)[nH]2)cc1 (mixture of isomers) [Example 10, N-[6-[4(N-Acetyl-DL-alanylamino)phenyl]-1,2-dihydro-2-oxonicotinyl]-7-[D-2-amino-2-phenylacetamido]-3-carbamoyloxymethyl-3-cephem-4-carboxylic acid]	6.3 µg/mL	25 µg/mL	12.5 µg/mL	3.1 µg/mL	> 50 µg/mL	12.5 µg/mL	12.5 µg/mL	12.5 µg/mL	6.3 µg/mL	12.5 µg/mL	1.6 µg/mL	3.1 µg/mL
CC(=O)OCC1=C(C(=O)O)N2C(=O)C(NC(=O)[C@H](NC(=O)c3ccc(-c4ccc(NC(=O)C5CCCN5C(C)=O)cc4)[nH]c3=O)c3ccccc3)C2SC1 (mixture of isomers) [Example 17, N-[6-[4-(N-Acetyl-DL-prolylamino)phenyl]-1,2-dihydro-2-oxonicotinyl]-7-[D-2-amino-2-phenylacetamido]-3-acetoxymethyl-3-cephem-4-carboxylic acid]	12.5 µg/mL	25 µg/mL	50 µg/mL	12.5 µg/mL	50 µg/mL	25 µg/mL	25 µg/mL	25 µg/mL	3.1 µg/mL	12.5 µg/mL	1.6 µg/mL	3.1 µg/mL
CC(=O)NC(C)C(=O)Nc1ccc(-c2ccc(C(=O)N[C@@H](C(=O)NC3C(=O)N4C(C(=O)O)=C(CSc5nnnn5C)CSC34)c3ccccc3)c(=O)[nH]2)cc1 (mixture of isomers) [Example 18, N-[6-[4-(N-Acetyl-DL-alanylamino)phenyl]-1,2-dihydro-3-oxonicotinyl]-7-[D-2-amino-2-phenylacetamido]-3-[[(1-methyl-1H-tetrazol-5-yl)thio]methyl]-3-cephem-4-carboxylic acid]	6.3 µg/mL	6.3 µg/mL	25 µg/mL	6.3 µg/mL	12.5 µg/mL	3.1 µg/mL	25 µg/mL	12.5 µg/mL	0.4 µg/mL	0.8 µg/mL	0.4 µg/mL	3.1 µg/mL
CC(=O)NC(C)C(=O)Nc1ccc(-c2ccc(C(=O)N[C@@H](C(=O)NC3C(=O)N4C(C(=O)O)=C(CSc5nnc(C)s5)CSC34)c3ccccc3)c(=O)[nH]2)cc1 (mixture of isomers) [Example 22, N-[6-[4-(N-Acetyl-DL-alanylamino)phenyl]-1,2-dihydro-2-oxonicotinyl]-7-[D-2-amino-2-phenylacetamido]-3-[([4-methyl-1,3,4-thiadiazol-2-yl]thio)methyl]-3-cephem-4-carboxylic acid]	12.5 µg/mL	12.5 µg/mL	12.5 µg/mL	12.5 µg/mL	25 µg/mL	6.3 µg/mL	12.5 µg/mL	12.5 µg/mL	1.6 µg/mL	3.1 µg/mL	0.4 µg/mL	6.3 µg/mL
CC(=O)NCCCCC(NC(C)=O)C(=O)Nc1ccc(-c2ccc(C(=O)N[C@@H](C(=O)NC3C(=O)N4C(C(=O)O)=C(CSc5nnnn5C)CSC34)c3ccccc3)c(=O)[nH]2)cc1 (mixture of isomers) [Example 26, N-[6-[4-(N,N'-Diacetyl-DL-lysylamino)phenyl)-1,2-dihydro-2-oxonicotinyl]-7-[D-2-amino-2-phenylacetamido]3-[[(1-methyl-1H-tetrazol-5-yl)thio]methyl]-3-cephem-4-carboxylic acid]	12.5 µg/mL	6.3 µg/mL	50 µg/mL	12.5 µg/mL	50 µg/mL	12.5 µg/mL	25 µg/mL	12.5 µg/mL	1.6 µg/mL	1.6 µg/mL	1.6 µg/mL	6.3 µg/mL
CC(=O)NCCCCC(NC(C)=O)C(=O)Nc1ccc(-c2ccc(C(=O)N[C@@H](C(=O)NC3C(=O)N4C(C(=O)O)=C(COC(C)=O)CSC34)c3ccccc3)c(=O)[nH]2)cc1 (mixture of isomers) [Example 27, N-[6-[4-(N,N'-Diacetyl-DL-lysylamino)phenyl]-1,2-dihydro-2-oxonicotinyl]-7-[D-2-amino-2-phenylacetamido]-3-acetoxymethyl-3-cephem-4-carboxylic acid]	6.3 µg/mL	12.5 µg/mL	25 µg/mL	3.1 µg/mL	> 50 µg/mL	25 µg/mL	50 µg/mL	12.5 µg/mL	3.1 µg/mL	6.3 µg/mL	1.6 µg/mL	12.5 µg/mL
CC(=O)N[C@H](C)C(=O)Nc1ccc(-c2ccc(C(=O)N[C@@H](C(=O)NC3C(=O)N4C(C(=O)O)=C(CSc5nnnn5CC(=O)O)CSC34)c3ccccc3)c(=O)[nH]2)cc1 (stereo partly drawn) [Example 1, N-[6-[4-(N-Acetyl-D-alanylamino)phenyl]-1,2-dihydro-2-oxonicotinyl]-7-[D-2-amino-2-phenylacetamido]-3-[[(1-carboxymethyl-1H-tetrazol-5-yl)thio]methyl]-3-cephem-4-carboxylic acid]	6.3 µg/mL (≈ 7.58 µM)	3.1 µg/mL (≈ 3.73 µM)	> 50 µg/mL	6.3 µg/mL (≈ 7.58 µM)	12.5 µg/mL (≈ 15 µM)	6.3 µg/mL (≈ 7.58 µM)	3.1 µg/mL (≈ 3.73 µM)	12.5 µg/mL (≈ 15 µM)	0.4 µg/mL (≈ 0.481 µM)	3.1 µg/mL (≈ 3.73 µM)	3.1 µg/mL (≈ 3.73 µM)	12.5 µg/mL (≈ 15 µM)
CC(=O)N[C@H](C)C(=O)Nc1ccc(-c2ccc(C(=O)N[C@@H](C(=O)NC3C(=O)N4C(C(=O)O)=C(COC(C)=O)CSC34)c3ccccc3)c(=O)[nH]2)cc1 (stereo partly drawn) [Example 4, N-[6-[4-(N-Acetyl-D-alanylamino)phenyl]-1,2-dihydro-2-oxonicotinyl]-7-[D-2-amino-2-phenylacetamido]-3-acetoxymethyl-3-cephem-4-carboxylic acid]	6.3 µg/mL (≈ 8.62 µM)	12.5 µg/mL (≈ 17.1 µM)	25 µg/mL (≈ 34.2 µM)	6.3 µg/mL (≈ 8.62 µM)	50 µg/mL (≈ 68.4 µM)	12.5 µg/mL (≈ 17.1 µM)	25 µg/mL (≈ 34.2 µM)	12.5 µg/mL (≈ 17.1 µM)	3.1 µg/mL (≈ 4.24 µM)	6.3 µg/mL (≈ 8.62 µM)	0.8 µg/mL (≈ 1.09 µM)	
CC(=O)N[C@@H](C)C(=O)Nc1ccc(-c2ccc(C(=O)N[C@@H](C(=O)NC3C(=O)N4C(C(=O)O)=C(CSc5nnnn5C)CSC34)c3ccccc3)c(=O)[nH]2)cc1 (stereo partly drawn) [Example 20, N-[6-[4-(N-Acetyl-L-alanylamino)phenyl]-1,2-dihydro-2-oxonicotinyl]7-[D-2-amino-2-phenylacetamido]-3-[[(1-methyl-1H-tetrazol-5-yl)thio]methyl]-3-cephem-4-carboxylic acid]	12.5 µg/mL (≈ 15.9 µM)	6.3 µg/mL (≈ 8.01 µM)	25 µg/mL (≈ 31.8 µM)	12.5 µg/mL (≈ 15.9 µM)	25 µg/mL (≈ 31.8 µM)	6.3 µg/mL (≈ 8.01 µM)	12.5 µg/mL (≈ 15.9 µM)	12.5 µg/mL (≈ 15.9 µM)	1.6 µg/mL (≈ 2.03 µM)	1.6 µg/mL (≈ 2.03 µM)	1.6 µg/mL (≈ 2.03 µM)	
CC(=O)N[C@@H](CCC(N)=O)C(=O)Nc1ccc(-c2ccc(C(=O)N[C@@H](C(=O)NC3C(=O)N4C(C(=O)O)=C(CSc5nnnn5CC(=O)O)CSC34)c3ccccc3)c(=O)[nH]2)cc1 (stereo partly drawn) [Example 21, N-[6-[4-(N-Acetyl-L-glutaminylamino)phenyl]-1,2-dihydro-2-oxonicotinyl]-7-[D-2-amino-2-phenylacetamido]-3-[[(1-carboxymethyl-1H-tetrazol-5-yl)thio]methyl]-3-cephem-4-carboxylic acid]	6.3 µg/mL (≈ 7.1 µM)	6.3 µg/mL (≈ 7.1 µM)	50 µg/mL (≈ 56.3 µM)	6.3 µg/mL (≈ 7.1 µM)	12.5 µg/mL (≈ 14.1 µM)	3.1 µg/mL (≈ 3.49 µM)	3.1 µg/mL (≈ 3.49 µM)	12.5 µg/mL (≈ 14.1 µM)	3.1 µg/mL (≈ 3.49 µM)	3.1 µg/mL (≈ 3.49 µM)	6.3 µg/mL (≈ 7.1 µM)	
CC(=O)N[C@H](C)C(=O)Nc1ccc(-c2ccc(C(=O)N[C@@H](C(=O)NC3C(=O)N4C(C(=O)O)=C(COC(N)=O)CSC34)c3ccccc3)c(=O)[nH]2)cc1 (stereo partly drawn) [Example 24, N-[6-[4(N-Acetyl-D-alanylamino)phenyl]-1,2-dihydro-2-oxonicotinyl]-7-[D-2-amino-phenylacetamido]-3-carbamoyloxymethyl-3-cephem-4-carboxylic acid]	12.5 µg/mL (≈ 17.1 µM)	25 µg/mL (≈ 34.2 µM)	25 µg/mL (≈ 34.2 µM)	12.5 µg/mL (≈ 17.1 µM)	> 50 µg/mL	25 µg/mL (≈ 34.2 µM)	12.5 µg/mL (≈ 17.1 µM)	12.5 µg/mL (≈ 17.1 µM)	6.3 µg/mL (≈ 8.61 µM)	12.5 µg/mL (≈ 17.1 µM)	0.4 µg/mL (≈ 0.547 µM)	
CC(=O)N[C@H](CCC(N)=O)C(=O)Nc1ccc(-c2ccc(C(=O)N[C@@H](C(=O)NC3C(=O)N4C(C(=O)O)=C(CSc5nnnn5CC(=O)O)CSC34)c3ccccc3)c(=O)[nH]2)cc1 (stereo partly drawn) [Example 37, N-[6-[4-(N-Acetyl-D-glutaminylamino)phenyl]-1,2-dihydro-2-oxonicotinyl]-7-[D-2-amino-2-phenylacetamido]-3-[[(1-carboxymethyl-1H-tetrazol-5-yl)thio]methyl]-3-cephem-4-carboxylic acid]	12.5 µg/mL (≈ 14.1 µM)	6.3 µg/mL (≈ 7.1 µM)	> 50 µg/mL	6.3 µg/mL (≈ 7.1 µM)	12.5 µg/mL (≈ 14.1 µM)	6.3 µg/mL (≈ 7.1 µM)	3.1 µg/mL (≈ 3.49 µM)	12.5 µg/mL (≈ 14.1 µM)	0.8 µg/mL (≈ 0.901 µM)	3.1 µg/mL (≈ 3.49 µM)	6.3 µg/mL (≈ 7.1 µM)	
